# Values joined by “and” are separate entries in the source; they are usually repeats but may differ in a detail not shown here. Identical values can stand only once.
# Legend:
# Type in all cases: cell-based
# [1] = test system: Halo–p53-Y220C ΔTAD–mCherry 293T cells; test: caspase 3/7 glo; settings: for mean_norm (caspase 3/7 glo): Cell_Line Y220C, normalized to Concentration 0; for raw caspase 3/7 glo signal, single replicate: Y220C
# Description: (§1) Cells were plated in 384-well plates (typically 1,500 cells per well) with varying concentrations of compounds with a total volume of 50 μl per well. After 1 day, caspase 3/7 glo reagent (Promega) was added following the manufacturer’s protocol and read out using an EnVision 2105 multimode plate reader.
# [2] = test system: parental 293T cells; test: caspase 3/7 glo; settings: for mean_norm (caspase 3/7 glo): Cell_Line WT, normalized to Concentration 0; for raw caspase 3/7 glo signal, single replicate: WT
# Description: as §1
# [3] = test system: Halo–p53-Y220C ΔTAD–mCherry 293T cells; test: annexin–PI staining; settings: for P3_avg (P3 = early apoptotic) / P5_avg (P5 = late apoptotic): Cell_Line Y220C, proportion of cells; for avgprop_P3: average proportion AnnexinPos PIneg; for avgprop_P4: average proportion PIpos AnnexinNeg; for avgprop_P5: average proportion PIpos Annexinpos; for avgprop_P2: average proportion viable
# Description: Cells were plated in six-well plates and treated with varying concentrations of compounds for 1 day. Cells were stained with annexin V–AF488 and PI following the manufacturer’s instructions (Thermo Fisher, V13241) and analyzed by flow cytometry (Beckman CytoFLEX LX), using untreated cells to establish gates.
# [4] = Y220C, Concentration 0.75, event count, single replicate
# [5] = Y220C, Concentration 1.5, event count, single replicate
smiles,measurement,setting,value
"CC[C@@H]1C(=O)N(C)c2cnc(Nc3ccc(C(=O)NCCOCCOCCOCCOCCC(=O)N4CCC(Nc5cccc6c5cc(C#CCNc5ccc(S(C)(=O)=O)cc5OC)n6CC(F)(F)F)CC4)cc3OC)nc2N1C1CCCC1 [p53-01, PMV6-PEG4-BI2536]",mean_norm (caspase 3/7 glo),[1]; Concentration 19.5312,1.044
same,mean_norm (caspase 3/7 glo),[1]; Concentration 39.0625,0.9705
same,mean_norm (caspase 3/7 glo),[1]; Concentration 78.125,0.9927
same,mean_norm (caspase 3/7 glo),[1]; Concentration 156.25,0.9639
same,mean_norm (caspase 3/7 glo),[1]; Concentration 312.5,0.9272
same,mean_norm (caspase 3/7 glo),[1]; Concentration 625,0.8899
same,mean_norm (caspase 3/7 glo),[1]; Concentration 1250,1.234
same,mean_norm (caspase 3/7 glo),[1]; Concentration 2500,2.011
same,mean_norm (caspase 3/7 glo),[1]; Concentration 5000,2.316
same,mean_norm (caspase 3/7 glo),[1]; Concentration 10000,2.222
same,"raw caspase 3/7 glo signal, single replicate",[1]; Concentration 19.5312,122690 and 136337 and 118028 and 144163
same,"raw caspase 3/7 glo signal, single replicate",[1]; Concentration 39.0625,117294 and 127747 and 106194 and 133419
same,"raw caspase 3/7 glo signal, single replicate",[1]; Concentration 78.125,123437 and 120512 and 118467 and 133301
same,"raw caspase 3/7 glo signal, single replicate",[1]; Concentration 156.25,105036 and 125984 and 107588 and 142722
same,"raw caspase 3/7 glo signal, single replicate",[1]; Concentration 312.5,120420 and 114761 and 112118 and 115705
same,"raw caspase 3/7 glo signal, single replicate",[1]; Concentration 625,92711 and 123269 and 91753 and 136660
same,"raw caspase 3/7 glo signal, single replicate",[1]; Concentration 1250,148294 and 147349 and 143892 and 176603
same,"raw caspase 3/7 glo signal, single replicate",[1]; Concentration 2500,271302 and 236256 and 229038 and 267460
same,"raw caspase 3/7 glo signal, single replicate",[1]; Concentration 5000,327582 and 262469 and 277595 and 289089
same,"raw caspase 3/7 glo signal, single replicate",[1]; Concentration 10000,286008 and 259961 and 264959 and 298921
same,induction of apoptosis,"[1]; versus parental 293T, caspase 3/7 glo and annexin–PI, 1 day",differentially induced apoptosis
same,mean_norm (caspase 3/7 glo),[2]; Concentration 19.5312,1.032
same,mean_norm (caspase 3/7 glo),[2]; Concentration 39.0625,0.9788
same,mean_norm (caspase 3/7 glo),[2]; Concentration 78.125,1.009
same,mean_norm (caspase 3/7 glo),[2]; Concentration 156.25,0.9403
same,mean_norm (caspase 3/7 glo),[2]; Concentration 312.5,0.9336
same,mean_norm (caspase 3/7 glo),[2]; Concentration 625,0.8748
same,mean_norm (caspase 3/7 glo),[2]; Concentration 1250,1.007
same,mean_norm (caspase 3/7 glo),[2]; Concentration 2500,1.185
same,mean_norm (caspase 3/7 glo),[2]; Concentration 5000,1.4986
same,mean_norm (caspase 3/7 glo),[2]; Concentration 10000,1.763
same,"raw caspase 3/7 glo signal, single replicate",[2]; Concentration 19.5312,133494 and 117337 and 138819 and 114789
same,"raw caspase 3/7 glo signal, single replicate",[2]; Concentration 39.0625,123804 and 109630 and 139391 and 105438
same,"raw caspase 3/7 glo signal, single replicate",[2]; Concentration 78.125,123731 and 127401 and 120215 and 121439
same,"raw caspase 3/7 glo signal, single replicate",[2]; Concentration 156.25,127240 and 99863 and 130913 and 101408
same,"raw caspase 3/7 glo signal, single replicate",[2]; Concentration 312.5,120672 and 107314 and 116046 and 112110
same,"raw caspase 3/7 glo signal, single replicate",[2]; Concentration 625,120568 and 89735 and 125147 and 91991
same,"raw caspase 3/7 glo signal, single replicate",[2]; Concentration 1250,122108 and 116864 and 133954 and 118859
same,"raw caspase 3/7 glo signal, single replicate",[2]; Concentration 2500,139477 and 137713 and 153198 and 148518
same,"raw caspase 3/7 glo signal, single replicate",[2]; Concentration 5000,207130 and 170945 and 175970 and 178176
same,"raw caspase 3/7 glo signal, single replicate",[2]; Concentration 10000,233886 and 204323 and 214988 and 207998
same,P3_avg (P3 = early apoptotic),[3]; Concentration 0.75,0.07971
same,P5_avg (P5 = late apoptotic),[3]; Concentration 0.75,0.02225
same,P3_avg (P3 = early apoptotic),[3]; Concentration 1.5,0.2575
same,P5_avg (P5 = late apoptotic),[3]; Concentration 1.5,0.07698
same,avgprop_P3,"[3]; Y220C, Concentration 0.75",0.07971
same,avgprop_P4,"[3]; Y220C, Concentration 0.75",0.05038
same,avgprop_P5,"[3]; Y220C, Concentration 0.75",0.02225
same,avgprop_P2,"[3]; Y220C, Concentration 0.75",0.8477
same,P2_viable,[3]; [4],1654 and 1707 and 1670
same,P3_AnnexinPos_PIneg,[3]; [4],165 and 158 and 150
same,P4_PIpos_AnnexinNeg,[3]; [4],95 and 98 and 106
same,P5_PIpos_Annexinpos,[3]; [4],45 and 43 and 44
same,prop_P3,"[3]; Y220C, Concentration 0.75, proportion AnnexinPos PIneg, single replicate",0.08423 and 0.07876 and 0.07614
same,prop_P4,"[3]; Y220C, Concentration 0.75, proportion PIpos AnnexinNeg, single replicate",0.04849 and 0.04885 and 0.05381
same,prop_P5,"[3]; Y220C, Concentration 0.75, proportion PIpos Annexinpos, single replicate",0.02297 and 0.02144 and 0.02234
same,prop_P2,"[3]; Y220C, Concentration 0.75, proportion viable, single replicate",0.8443 and 0.8509 and 0.8477
same,avgprop_P3,"[3]; Y220C, Concentration 1.5",0.2575
same,avgprop_P4,"[3]; Y220C, Concentration 1.5",0.06957
same,avgprop_P5,"[3]; Y220C, Concentration 1.5",0.07698
same,avgprop_P2,"[3]; Y220C, Concentration 1.5",0.5959
same,P2_viable,[3]; [5],912 and 887 and 871
same,P3_AnnexinPos_PIneg,[3]; [5],381 and 378 and 395
